Results as given in patent US6013660A (priority 1996, dated 2000).
“Also recorded” adds a separate entry of the source. Read-outs that look alike come from different tables or passages of the source.

How the values were obtained:
M. tuberculosis Erdman [1] = assay: M. tuberculosis Erdman growth in broth, various concentrations of inhibitor (Examples 5, 12); type: cell-based, Mycobacterium tuberculosis; conditions: for inhibitory effect on M. tuberculosis growth (comparison of known GS inhibitors): relative to L-methionine-S-sulfoximine
M. tuberculosis Erdman [2] = assay: Effect of L-glutamine on M. tuberculosis Erdman broth cultures with or without MS, Example 13; type: cell-based, Mycobacterium tuberculosis; conditions: for effect of L-glutamine on M. tuberculosis growth without MS: no MS, FIG. 14; for effect of L-glutamine on M. tuberculosis growth with subinhibitory MS: subinhibitory (minimally inhibitory, FIG. 15) MS
Procedure: L-glutamine (L-GLN) was added to MS-treated cultures of M. tuberculosis Erdman.

E. coli DH5α = conditions: 0.2, 2, 20, 200 μM MS; FIG. 12
M. bovis BCG = conditions: FIG. 7; listed as MS
M. tuberculosis Erdman [3] = conditions: 200 μM MS
[4] = target: T1, extracellular glutamine synthetase (Mycobacterium tuberculosis, UniProt P9WN39)
[5] = target: T2, extracellular glutamine synthetase (Mycobacterium avium, UniProt A0ACG7XF78); conditions: M. avium vs highly pathogenic strains
[6] = tested on: M. tuberculosis, Erdman strain; conditions: 2000 μM MS added at 0, 1, 2, 3, 4 weeks; FIG. 3
M. smegmatis 1-2c = conditions: 0.2, 2, 20, 200 μM MS; FIG. 10
glutamine synthetase = conditions: Manning et al., 1969; cited from earlier work
THP-1 cells = assay: Growth/toxicity in human monocyte cell line THP-1, Examples 14 and 15; type: cell-based; conditions: for effect on growth rate of THP-1 cells: 200 μM MS, FIG. 19
[7] = target: cell-associated glutamine synthetase (Mycobacterium tuberculosis, UniProt P9WN39); conditions: 20 μM MS; vs untreated; FIG. 22
[8] = target: T2, extracellular glutamine synthetase; assay: biochemical; conditions: read-out: concentration of MS required to completely inhibit glutamine synthetase activity
M. tuberculosis H37Rv = conditions: 0.2-200 μM MS; FIG. 5; similar to Erdman; listed as MS
[9] = tested on: L. pneumophila Philadelphia 1; conditions: 0.2, 2, 20, 200 μM MS; FIG. 11
[10] = target: T1, extracellular glutamine synthetase; assay: biochemical; conditions: read-out: extracellular GS activity relative to untreated cultures
M. phlei = conditions: 0.2, 2, 20, 200 μM MS; FIG. 9
M. tuberculosis Erdman [11] = assay: Control: effect of SDS on M. tuberculosis Erdman growth in broth culture (FIG. 24); type: cell-based, Mycobacterium tuberculosis; conditions: 0.1% SDS
Procedure: In the presence of 200 μM MS, M. tuberculosis growth was inhibited by almost 1 log by two days and by nearly 2 logs by five days.

SMILES: CS(=N)(=O)CCC(N)C(=O)O (racemic) [DL-methionine-SR-sulfoximine, reference compound]
- potency in inhibiting growth of M. tuberculosis relative to L-methionine-S-sulfoximine (M. tuberculosis Erdman [1]; FIG. 13 vs FIG. 4): about 1/4
- inhibitory effect on M. tuberculosis growth (comparison of known GS inhibitors) (M. tuberculosis Erdman [1]): significantly weaker inhibitory effect on the growth of M. tuberculosis

SMILES: NC(=O)CC[C@H](N)C(=O)O [L-glutamine]
- effect of L-glutamine on MS inhibition of M. tuberculosis (M. tuberculosis Erdman [2]; inhibitory MS (2, 20, 200 μM), FIGS. 16-18): reverse the inhibitory effect of MS in a dose-dependent fashion; also recorded: reversed the inhibitory effect of MS
- effect of L-glutamine on M. tuberculosis growth without MS (M. tuberculosis Erdman [2]): no or little influence on M. tuberculosis growth; also recorded: lack of effect
- effect of L-glutamine on M. tuberculosis growth without MS (M. tuberculosis Erdman [2]; listed as L-GLN): no effect on the growth
- effect of L-glutamine on M. tuberculosis growth with subinhibitory MS (M. tuberculosis Erdman [2]): no or little influence on M. tuberculosis growth; also recorded: lack of effect
- effect of L-glutamine on M. tuberculosis growth with subinhibitory MS (M. tuberculosis Erdman [2]; listed as L-GLN): no effect on the growth

SMILES: C[S@](=N)(=O)CC[C@H](N)C(=O)O [L-methionine-S-sulfoximine]
- growth inhibition of E. coli (E. coli DH5α): lack of effect
- growth inhibition of M. bovis BCG in broth (M. bovis BCG): strongly inhibits, in dose-dependent fashion
- Colony forming units of M. tuberculosis Erdman from infected THP-1 human monocytes (M. tuberculosis Erdman [3]; Day 0): 8.58 × 10^5 CFU
- Colony forming units of M. tuberculosis Erdman from infected THP-1 human monocytes (M. tuberculosis Erdman [3]; Day 2): 6.22 × 10^5 CFU
- Colony forming units of M. tuberculosis Erdman from infected THP-1 human monocytes (M. tuberculosis Erdman [3]; Day 5a, lysed with sodium dodecyl sulfate): 4.80 × 10^5 CFU
- Colony forming units of M. tuberculosis Erdman from infected THP-1 human monocytes (M. tuberculosis Erdman [3]; Day 5b, lysed by vortexing): 4.32 × 10^5 CFU
- inhibition of intracellular M. tuberculosis growth (M. tuberculosis Erdman [3]; by five days): ~2 logs
- inhibition of intracellular M. tuberculosis growth (M. tuberculosis Erdman [3]; by two days): ~1 log
- preferential inhibition of extracellular over cell-associated GS activity ([4]; 20 μM MS, extracellular vs cell-associated): preferentially inhibits extracellular GS activity
- extracellular GS activity in M. tuberculosis cultures ([4]; 0.2-200 μM MS from week 1, FIG. 20): marked decrease in extracellular GS activity
- increase in extracellular GS activity over 3 weeks (week 1 to week 4) ([4]; 2-200 μM MS): little or no increase in extracellular GS activity
- concentration required to inhibit GS activity compared with M. tuberculosis and M. bovis [5]: higher than that required to inhibit the glutamine synthetase activity of the highly pathogenic strains of M. tuberculosis and M. bovis
- inhibition of M. tuberculosis growth in broth by time of addition [6]: inhibited the growth of M. tuberculosis in broth cultures when added up to 3 weeks following inoculation
- growth inhibition of M. smegmatis (M. smegmatis 1-2c): lack of effect
- inhibition of glutamine synthetase (glutamine synthetase): inhibits glutamine synthetase
- growth inhibition of M. tuberculosis Erdman in broth (M. tuberculosis Erdman [1]; 2 μM MS): strongly inhibited
- growth inhibition of M. tuberculosis Erdman in broth (M. tuberculosis Erdman [1]; 20 μM MS): completely inhibited
- growth inhibition of M. tuberculosis Erdman in broth (M. tuberculosis Erdman [1]; 200 μM MS): completely inhibited
- growth inhibition of M. tuberculosis Erdman in broth, overall (M. tuberculosis Erdman [1]; 0.2, 2, 20, 200 μM, OD540 weekly, FIG. 4, listed as MS): strongly inhibits, in dose-dependent fashion; also recorded: inhibited the growth of M. tuberculosis Erdman in broth culture at all concentrations tested
- minimal effective concentration (M. tuberculosis Erdman [1]; Mycobacterium tuberculosis, broth culture, FIGS. 4 and 5 (Erdman and H37Rv), read-out: MS concentrations as low as ... inhibited M. tuberculosis growth): 0.2 µM
- growth and viability of THP-1 cells (THP-1 cells; 0 or 200 μM MS): grew at the same rate and maintained high viability
- effect on growth rate of THP-1 cells (THP-1 cells): lack of effect
- effect on growth rate of THP-1 cells (THP-1 cells; listed as MS): no influence on the growth rate of these cells
- toxicity against THP-1 cells (THP-1 cells; up to 200 μM MS, listed as MS): no toxicity toward a human monocyte cell line; also recorded: no evidence of toxicity against THP-1 cells; also recorded: no evident toxicity for THP-1 cells up to a concentration of 200 μM
- cell-associated GS activity [7]: only slightly reduced
- IC100 [8]: 200 µM
- growth inhibition of M. tuberculosis H37Rv in broth (M. tuberculosis H37Rv): strongly inhibits, in dose-dependent fashion
- growth inhibition of L. pneumophila [9]: lack of effect
- activity at 20 µM [10]: < 25%
- growth inhibition of M. phlei (M. phlei): lack of effect

SMILES: CCCCCCCCCCCCOS(=O)(=O)[O-].[Na+] [SDS, sodium dodecyl sulfate]
- influence of SDS on growth of M. tuberculosis in broth (M. tuberculosis Erdman [11]): had no influence on growth of M. tuberculosis in broth culture

SMILES: CP(=O)(O)CC[C@H](N)C(=O)O [phosphinothricin, reference compound]
- inhibitory effect on M. tuberculosis growth (comparison of known GS inhibitors) (M. tuberculosis Erdman [1]): only a very minor inhibitory effect on M. tuberculosis growth
